From patent publication US20020177180A1, “pH-indicator based assay for selective enzymes” (ThermoGen, Inc., priority 1998, published 2002)

What was measured:
Assay in all cases: Initial screening of ThermoGen esterases toward esters 1-31 (pH indicator), specific activity
Type in all cases: biochemical
Settings in all cases: 1 mM substrate, pH 7.2, 7 vol % acetonitrile, 25° C.
esterase E011 = test system: esterase E011
Method: (§1) Initial screening measures the initial rate of hydrolysis of different esters. The rate of reaction was measured by monitoring the release of protons using a pH indicator, 4-nitrophenol. In this assay, the yellow color of the phenoxide disappears as the reaction proceeds. The amount of ester hydrolyzed can be measured quantitatively, as is known in the art.

esterase E006 = test system: esterase E006
Method: as §1
(§2) To survey the substrate selectivity of the ThermoGen esterases, the ability of the enzymes to hydrolyze thirty-one different commercially-available esters, Scheme 1 (FIG. 9, Table 6).

esterase E012 = test system: esterase E012
Method: as §1, §2

esterase E014 = test system: esterase E014
Method: as §1, §2

esterase E015 = test system: esterase E015
Method: as §1, §2

esterase E016 = test system: esterase E016
Method: as §1, §2

esterase E020 = test system: esterase E020
Method: as §1, §2

Compound | Specific activity, esterase E011 (esterase E011) | Specific activity, esterase E006 (esterase E006) | Specific activity, esterase E012 (esterase E012) | Specific activity, esterase E014 (esterase E014) | Specific activity, esterase E015 (esterase E015) | Specific activity, esterase E016 (esterase E016) | Specific activity, esterase E020 (esterase E020)
CC(C(=O)Oc1ccc([N+](=O)[O-])cc1)c1ccccc1 (racemic) [Substrate 1, (±)-4-nitrophenyl-2-phenylpropanoate, reference compound] | 5.1 mmol ester hydrolyzed/min/mg protein | 120 mmol ester hydrolyzed/min/mg protein | 3.1 mmol ester hydrolyzed/min/mg protein | 1.2 mmol ester hydrolyzed/min/mg protein | 89 mmol ester hydrolyzed/min/mg protein | 63 mmol ester hydrolyzed/min/mg protein | 110 mmol ester hydrolyzed/min/mg protein
CC(C)Cc1ccc(C(C)C(=O)Oc2ccc([N+](=O)[O-])cc2)cc1 (racemic) [Substrate 2, (±)-4-nitrophenyl 2-(4-isobutylphenyl)propanoate, reference compound] | 160 mmol ester hydrolyzed/min/mg protein | 260 mmol ester hydrolyzed/min/mg protein | 11 mmol ester hydrolyzed/min/mg protein | 170 mmol ester hydrolyzed/min/mg protein | 350 mmol ester hydrolyzed/min/mg protein | 220 mmol ester hydrolyzed/min/mg protein | 370 mmol ester hydrolyzed/min/mg protein
NC(Cc1ccccc1)C(=O)Oc1ccc([N+](=O)[O-])cc1.O=C(O)C(F)(F)F (racemic) [Substrate 3, D,L-phenylalanine-4-nitrophenol ester TFA salt, reference compound] | 220 mmol ester hydrolyzed/min/mg protein | 410 mmol ester hydrolyzed/min/mg protein | 37 mmol ester hydrolyzed/min/mg protein | 180 mmol ester hydrolyzed/min/mg protein | 280 mmol ester hydrolyzed/min/mg protein | 230 mmol ester hydrolyzed/min/mg protein | 550 mmol ester hydrolyzed/min/mg protein
CCCC(=O)OCC1COC(C)(C)O1 (racemic) [Substrate 8, (±)-Solketal Butyrate, reference compound] | <0.1 mmol ester hydrolyzed/min/mg protein | 0.13 mmol ester hydrolyzed/min/mg protein | <2 mmol ester hydrolyzed/min/mg protein | <0.1 mmol ester hydrolyzed/min/mg protein | 0.16 mmol ester hydrolyzed/min/mg protein | 2.2 mmol ester hydrolyzed/min/mg protein | <0.2 mmol ester hydrolyzed/min/mg protein
C=COC(=O)CCCCC [Substrate 4] | 680 mmol ester hydrolyzed/min/mg protein | 1700 mmol ester hydrolyzed/min/mg protein | 48 mmol ester hydrolyzed/min/mg protein | 540 mmol ester hydrolyzed/min/mg protein | 1100 mmol ester hydrolyzed/min/mg protein | 1300 mmol ester hydrolyzed/min/mg protein | 3000 mmol ester hydrolyzed/min/mg protein
C=COC(=O)CCCCCCC [Substrate 5] | 260 mmol ester hydrolyzed/min/mg protein | 960 mmol ester hydrolyzed/min/mg protein | 50 mmol ester hydrolyzed/min/mg protein | 8.0 mmol ester hydrolyzed/min/mg protein | 320 mmol ester hydrolyzed/min/mg protein | 1200 mmol ester hydrolyzed/min/mg protein | 1200 mmol ester hydrolyzed/min/mg protein
CCCCCCCCCCCCCC(=O)Oc1ccc2nc3ccc(=O)cc-3oc2c1 [Substrate 6, Resorufin tetradecanoate, reference compound] | 280 mmol ester hydrolyzed/min/mg protein | 0.55 mmol ester hydrolyzed/min/mg protein | 27 mmol ester hydrolyzed/min/mg protein | 170 mmol ester hydrolyzed/min/mg protein | 330 mmol ester hydrolyzed/min/mg protein | 15 mmol ester hydrolyzed/min/mg protein | 1200 mmol ester hydrolyzed/min/mg protein
C=COC(=O)CCCCCCCCCCCCC [Substrate 7] | 0.45 mmol ester hydrolyzed/min/mg protein | 0.61 mmol ester hydrolyzed/min/mg protein | 7.6 mmol ester hydrolyzed/min/mg protein | 0.81 mmol ester hydrolyzed/min/mg protein | 3.0 mmol ester hydrolyzed/min/mg protein | 21 mmol ester hydrolyzed/min/mg protein | 1.0 mmol ester hydrolyzed/min/mg protein
CCCCCCCC(=O)OCC [Substrate 15] | 11 mmol ester hydrolyzed/min/mg protein | 160 mmol ester hydrolyzed/min/mg protein | 19 mmol ester hydrolyzed/min/mg protein | 5.1 mmol ester hydrolyzed/min/mg protein | 120 mmol ester hydrolyzed/min/mg protein | 83 mmol ester hydrolyzed/min/mg protein | 2.6 mmol ester hydrolyzed/min/mg protein
CCOC(=O)CBr [Substrate 18] | 5.5 mmol ester hydrolyzed/min/mg protein | 4.8 mmol ester hydrolyzed/min/mg protein | 5.9 mmol ester hydrolyzed/min/mg protein | 37 mmol ester hydrolyzed/min/mg protein | 100 mmol ester hydrolyzed/min/mg protein | 16 mmol ester hydrolyzed/min/mg protein | 3.1 mmol ester hydrolyzed/min/mg protein
COC(=O)CBr [Substrate 19] | 1.6 mmol ester hydrolyzed/min/mg protein | 1.9 mmol ester hydrolyzed/min/mg protein | 2.4 mmol ester hydrolyzed/min/mg protein | 0.73 mmol ester hydrolyzed/min/mg protein | 2.6 mmol ester hydrolyzed/min/mg protein | 7.6 mmol ester hydrolyzed/min/mg protein | 1.6 mmol ester hydrolyzed/min/mg protein
COC(=O)Cc1ccccc1 [Substrate 22] | <0.1 mmol ester hydrolyzed/min/mg protein | 0.16 mmol ester hydrolyzed/min/mg protein | <2 mmol ester hydrolyzed/min/mg protein | <0.1 mmol ester hydrolyzed/min/mg protein | 0.14 mmol ester hydrolyzed/min/mg protein | <2 mmol ester hydrolyzed/min/mg protein | 0.28 mmol ester hydrolyzed/min/mg protein
COC(=O)c1ccc(CO)cc1 [Substrate 23] | <0.1 mmol ester hydrolyzed/min/mg protein | 0.27 mmol ester hydrolyzed/min/mg protein | <2 mmol ester hydrolyzed/min/mg protein | <0.1 mmol ester hydrolyzed/min/mg protein | 0.13 mmol ester hydrolyzed/min/mg protein | <2 mmol ester hydrolyzed/min/mg protein | 0.47 mmol ester hydrolyzed/min/mg protein
CCCOC(C)=O [Substrate 24] | 0.25 mmol ester hydrolyzed/min/mg protein | 0.31 mmol ester hydrolyzed/min/mg protein | 2.8 mmol ester hydrolyzed/min/mg protein | <0.1 mmol ester hydrolyzed/min/mg protein | 0.26 mmol ester hydrolyzed/min/mg protein | <2 mmol ester hydrolyzed/min/mg protein | 0.85 mmol ester hydrolyzed/min/mg protein
CCCCOC(C)=O [Substrate 25] | 0.5 mmol ester hydrolyzed/min/mg protein | 0.54 mmol ester hydrolyzed/min/mg protein | <2 mmol ester hydrolyzed/min/mg protein | 0.21 mmol ester hydrolyzed/min/mg protein | 1.0 mmol ester hydrolyzed/min/mg protein | 13 mmol ester hydrolyzed/min/mg protein | 2.0 mmol ester hydrolyzed/min/mg protein
C=C(C)OC(C)=O [Substrate 27] | 45 mmol ester hydrolyzed/min/mg protein | 69 mmol ester hydrolyzed/min/mg protein | 2.4 mmol ester hydrolyzed/min/mg protein | 0.73 mmol ester hydrolyzed/min/mg protein | 100 mmol ester hydrolyzed/min/mg protein | 49 mmol ester hydrolyzed/min/mg protein | 3.3 mmol ester hydrolyzed/min/mg protein
